We go through one compound from patent publication US5215744A, “Methods for the treatment of tumors” (Boehringer Ingelheim GmbH, priority 1987, dated 1993).

Structures are written as SMILES. Entries after “also recorded” stand apart in the source; their conditions may differ. Where two headings read alike, the source gives them in different places.

The subject of series [1] is MM-1CB. Put plainly: Cell proliferation inhibition test (trypan-blue exclusion), continuous exposure. Format: cell-based, human. The source says: (§1) Four established cell lines were used. These were MM-1CB, derived from tissues of malignant melanoma (level IV, pT4 N0 M0) in a person (Jpn. J. Dermatol. 96:947 (1986)); KT, derived from metastatic brain tumor in a person (J. Rad. Res. 26:59 (1985) and The 44th Meeting of Japanese Cancer Association, 718 (1985)); PLC/PRF/5, derived from human hepatoma (Brit. J. Cancer 34:509-515 (1976)) and a transformed cell line RSa (Virology 135:20-29 (1984), and J. Natl. Cancer Inst. 56:919-926 (1976)).
(§2) Cells were cultured with Eagle's minimal essential medium (EMEM) containing 10% fetal bovine serum (GIBCO, U.S.A.) and antibiotics ([…] streptomycin/ml and 100 units penicillin G/ml), in an incubator at 37° C. under 5% CO2.
(§3) Other chemical agents were purchased from the Nakarai Co., Ltd., Japan.
(§4) Changes of medium with and without agents were carried out every other day. The viable cells were determined by trypan-blue exclusion test and counted with a hemocytometer. The survival percentage ratio was expressed as (counts of viable cells in test dishes per counts of viable cells in control dishes) x 100%, as described elsewhere in, e.g., Mutation Research 106:357-376 (1982) and […]. 67:651-661 (1986).
(§5) Most of experiments were carried out under a dim light or in the dark. Results were expressed as the mean of values obtained from more than two independent experiments.

The test system of series [2] is PLC/PRF/5 cells. Described as above. Format: cell-based, human. Particulars: HuIFN and dipyridamole (FIG. 5).
Source text: as §1, §2, §3, §4, §5

In another series the test system is RSa cells. The series can be described thus: DNA synthetic activity test ([^3 H]dTHD uptake into acid insoluble materials). Format: cell-based, human. Conditions: for activity at 0.1 µM: Homo sapiens, 24 h, RSa cells, read-out: DNA synthesis (% of control).
Source text: as §1, with “(1976)). [^3 H]dTHD uptake into acid insoluble materials were estimated in KT and RSa cells treated with the various agents, as described in J. Gen. Virol. […] 67:651-661 (1986).” for “(1976)).”

The test system of series [3] is KT cells. The series is described as above. Format: cell-based, human. Conditions: 0.1 μM dipyridamole with HuIFN-β (FIG. 8).
Source text: as §1
[^3 H]dTHD uptake into acid insoluble materials were estimated in KT and RSa cells treated with the various agents, as described in J. Gen. Virol. 67:651-661 (1986).

Series [4] concerns KT cells. Put plainly: Microscopic study of morphology. Particulars: combination treatment, dipyridamole 0.1 μM and HuIFN-α 10 units/ml (FIG. 6). Format: cell-based, human. The source says:
(§6) Cells seeded in test dishes were observed and photographed using OLYMPUS IMT-2 ([…] amplification).

Series [5] has as its system MM-1CB. The series can be described thus: Microscopic study of morphology. Format: cell-based, human. Particulars: dipyridamole 0.1 μM with HuIFN-β 10 units/ml, 6 days (FIG. 2).
Source text: as §6

For series [6], the system named is PLC/PRF/5 cells. The series can be described thus: Microscopic study of morphology. Format: cell-based, human. Conditions: combination treatment, dipyridamole 0.1 μM and HuIFN-β 10 units/ml (FIG. 7).
Source text: as §6

Another series concerns MM-1CB cells. The series can be described thus: Growth rate of established tumors in nude mice. Format: in vivo, human tumor cells in nude mice. As for the experimental part:
Growth rate of tumors after the apparent tumor appeared and then were treated with agents.
the two agents combination

The test system of a further series is DNA of MM-1CB cells. Put plainly: Alkaline sucrose gradient assay (DNA damage). Format: cell-based, human. Particulars: 10 μM dipyridamole 24 h then 10^3 IU/ml IFNβ 24 h (FIG. 12). The protocol:
Cells (2×10^5), prelabelled with [^14 C]Thymidine, were seeded in 60 mm culture dishes and then cultured with and without agents. After the indicated tie cells were scraped off from the dishes and suspended in ice-cold phosphate-buffer saline solution containing 10 mM EDTA.
The cell suspensions were then exposed to 100R of X-rays in order to facilitate the unwinding and separation of DNA strands, and the solution containing SDS was applied to the cells, 2% of the final concentration of sodium dodecil sulfate (SDS).
The cell lysates were layered on alkaline solution with 5-20% sucrose gradients containing 0.1M NaOH and 0.1M NaCl. Then the gradients were immediately centrifuged at 10,000 rpm for 17 hr at 20° C. in a Hitachi RPS55T rotor.
After centrifugation, solutions were fractionated and collected onto Whatmann 17 CHROMA paper strips. Radioactivity of acid-insoluble materials on the strips were counted in toluene based scintillator. The percentage of the total dpm in each fraction was calculated taking the input dpm as 100%.
C 10^3 IU/ml IFNβ exposure for 48 hr;

Series [7] has as its system plasminogen activator-like protease. Put plainly: Protease activity after dipyridamole exposure (^125 I-fibrin release). Format: cell-based, human (MM-1CB cells). Conditions: dipyridamole alone; MM-1CB, 30 min (FIG. 13). From the text:
Assay methods were similar to those described elsewhere (Suzuki et al., Mutation Res. 198:207-214 (1988)). Results were expressed as the total amount of ^125 I-radioactivity released from the labelled fibrin per protein contents.

Series [8] deals with MM-1CB, KT and PLC/PRF/5 cells. The series can be described thus: Anticellular action of HuIFN combined with dipyridamole (FIGS. 3-5). Conditions: FIGS. 3B, 4B and 5B. Format: cell-based, human. The protocol:
as §4

The conditions of series [9]: several hours after administration; cited from earlier work.
For series [10], the system named is human ovarian carcinoma cell line. Conditions: cited from earlier work.
Series [11] concerns chinese hamster ovary cells. Particulars: in vitro and in vivo; cited from earlier work.
The next series deals with interferon in mice. Particulars: I.V.; cited from earlier work.
The subject of another series is DNA. Particulars: dipyridamole alone; cited from earlier work.

In the case of `OCCN(CCO)c1nc(N2CCCCC2)c2nc(N(CCO)CCO)nc(N3CCCCC3)c2n1` [dipyridamole, 2,6-bis(diethanolamine)-4,8-dipiperidino-pyrimido[5,4-d]pyrimidin], the “effect with HuIFN-α, -β and -γ” value with MM-1CB [1] (0.1 μM dipyridamole continuously, 6 days (FIG. 3A)) was “additive effect with HuIFN-α, -β and -γ was also observed”. Also, in the series on MM-1CB [1] (0.1 μM dipyridamole with 10 units/ml HuIFN-β, more than 4 days (FIG. 1)), the “inhibition of cell growth” value was “considerable inhibition of cell growth”. Further, in the series with MM-1CB [1] (agent alone: 10 units/ml HuIFN-β or 0.1 μM dipyridamole (FIG. 1)), the “suppression of cell proliferation” value is “only slightly effective in suppressing cell proliferation”. Besides, the “lower concentration effective in enhancing the anticellular effect of HuIFN” value with MM-1CB [1] (with HuIFN, 6 days (FIG. 3B)) came to 0.01 µM. The “synergistic inhibitory activity, susceptibility” value with PLC/PRF/5 cells [2] is “high susceptibility to the synergistic inhibitory activity”. For the same compound, the “DNA synthesis inhibition, comparison in words” value with RSa cells (0.1 μM dipyridamole or mopidamole, alone vs combined with HuIFN-α) is “inhibited less than with combined treatment with HuIFN-α; also recorded: significantly more effective than mopidamole/HuIFN-α”. The activity at 0.1 µM turned out to be 61% in the series on RSa cells (agent 0.1 μM combined with HuIFN-α 1 unit/ml) and 92% in the series on RSa cells (agent 0.1 μM, HuIFN-α 0 unit/ml). For the same compound, the “enhancement of HuIFN inhibitory effect on DNA synthesis” value in the series on KT cells [3] was “remarkably enhanced”. Moreover, the cellular morphological conditions entry with KT cells [4] and in the series on PLC/PRF/5 cells [6] was “showed impairment after the combination treatment” each time. Also, in the series with MM-1CB [5], the cell morphology entry is “morphologically impaired”. The “depression of tumor growth, combination” value with MM-1CB cells (two agents given after tumor reached more than about 1 cm in diameter (FIG. 10)) is reported as “not drastically effective in depressing tumor growth”. Besides, the “effect of dipyridamole treatment prior to interferon” value in the series with MM-1CB cells (vs simultaneous administration (FIG. 10)) is given as “more effective than a simultaneous administration of the two agents”. Further, the “DNA damage under alkaline assay conditions” value in the series with DNA of MM-1CB cells is “resulted in damaged DNA; also recorded: the most part DNA shifted into lower molecular mass”. For the same compound, the “activity of plasminogen activator-like protease” value in [7] was “induced after a few minutes of treatment”. Also, the “most effective concentration for the synergistic enhancement of HuIFN action” value in [8] is on record as “less than 0.1 μM”. Also, the concentration in blood result in [9] is “a few micromoles”. Also, the “cytotoxicity of its own” value in series [10] (dipyridamole alone) is listed as “no cytotoxicity of its own”. Moreover, the PALA activity result in series [10] (with PALA) is listed as “increased PALA activity”. The “toxicity of methotrexate (MTX)” value in series [11] is reported as “enhanced the toxicity of methotrexate (MTX)”. Also, the “interferon induction in mice” value in the series on interferon in mice is given as “induced interferon in mice after I.V. administration”. For the same compound, the DNA damage result in the series with DNA was “does not damage DNA”.
